In patent US3984431A, “Derivatives of pyrazole-5-acetic acid” (priority 1972, dated 1976):
Where two headings read alike, the source gives them in different places.

Assays:
[1] = tested on: Brewer's yeast induced pyrexia; assay: Antipyretic action: Brewer's yeast induced pyrexia (Bianchi); format: in vivo, rat; conditions: read-out: 50% effective dose
From the text: Antipyretic action was established on the pyretic rat by the Bianchi method.
(§1) In all cases the products of the invention are compared to the following reference substances, aspirin, phenylbutazone, indomethacine.

Cotton pellet granulema = assay: Anti-inflammatory action: cotton pellet granuloma (Winter); format: in vivo, rat; conditions: read-out: 50% effective dose
From the text: as §1

[2] = Overall appraisal of anti-inflammatory, antipyretic and analgesic tests versus reference substances; format: in vivo; conditions: for overall activity compared with example 5 (in words): compared to example 5; for overall activity compared with phenylbutazone (in words): compared to phenylbutazone
Method: 1. Carragheen induced odema; method of Winter Arch. intern. Pharmacod. volume 112, page 174 (1957)
2. Ultra-violet induced erythema; method of Winter Arch. intern. Pharmacod. volume 114, page 261 (1958)
3. The formation of granulomae caused by the sub-cutaneous implantation of pellets of cotton in the rat; method of Winter Journal of the American Pharmaceutical Association, Science Edition, Volume 46, page 515 (1957)
The analgesic action was tested in relation to the pain caused in the mouse by the subcutaneous injection of acetic acid. Method based upon that of Siegmund, Proceedings of the Society of Experimental Biology and Medicine, volume 75, page 729 (1957)
Antipyretic action was established on the pyretic rat by the Bianchi method. Arzneimittel Forschung, volume 17, page 246 (1967)
as §1

[3] = tested on: Carragheen induced oedema; assay: Anti-inflammatory action: carragheen induced oedema (Winter); format: in vivo, rat; conditions: read-out: 50% effective dose
From the text: 1. Carragheen induced odema; method of Winter Arch. intern.
as §1

[4] = tested on: Ultra-violet induced erythema; assay: Anti-inflammatory action: ultra-violet induced erythema (Winter); format: in vivo, guinea-pig; conditions: Cavia porcellus, read-out: 50% effective dose
From the text: 2. Ultra-violet induced erythema; method of Winter Arch. intern.
as §1

[5] = tested on: Pain (cramp) caused by acetic acid; assay: Analgesic action: pain (cramp) caused by acetic acid in the mouse (Siegmund); format: in vivo; conditions: for ED50: sc, read-out: 50% effective dose
Method: The analgesic action was tested in relation to the pain caused in the mouse by the subcutaneous injection of acetic acid.
as §1

[6] = rat, oral administration, sub-cutaneous implantation of cotton pellets
[7] = guinea-pig, oral administration
[8] = mouse, acetic acid injected subcutaneously

SMILES | ED50 ([1]; pyretic rat) [mg/kg] | ED50 (Cotton pellet granulema; [6]) [mg/kg] | overall activity compared with example 5 (in words) [2] | ED50 ([3]; rat, oral administration) [mg/kg] | ED50 [4, 7] [mg/kg] | ED50 [5, 8] [mg/kg] | overall activity compared with phenylbutazone (in words) [2] | overall activity compared with indomethacine (in words) ([2]; compared to indomethacine) | anti-inflammatory and anti-pyretic activity (in words) ([2]; from the table) | analgesic effect (in words) ([5]; from the table) | ED50 ([1]; Rattus norvegicus) [mg/kg] | ED50 (Cotton pellet granulema; Rattus norvegicus, po) [mg/kg] | ED50 ([3]; Rattus norvegicus, po) [mg/kg] | ED50 ([4]; po) [mg/kg] | ED50 ([5]; Mus musculus) [mg/kg]
O=C(O)Cc1c(-c2ccccc2)c(-c2ccccc2)nn1Cc1ccccc1 [Example 1, 1-benzyl-3,4-diphenylpyrazolyl-5-acetic acid] | 1 | 80 | active substances, although slightly less so than example 5 | 60 | 1.6 | 150 | – | – | – | – | – | – | – | – | –
CC(C)Cn1nc(-c2ccccc2)c(-c2ccccc2)c1CC(=O)O [Example 3, 1-isobutyl-3,4-diphenylpyrazolyl-5-acetic acid] | 0.5 | 18 | active substances, although slightly less so than example 5 | 30 | 1 | 180 | still more powerful than phenylbutazone | – | – | – | – | – | – | – | –
O=C(O)Cc1c(-c2ccccc2)c(-c2ccccc2)nn1-c1ccccc1 [Example 5, 1,3,4-triphenylpyrazolyl-5-acetic acid] | 0.6 | 6 | – | 14 | 3 | 90 | much more powerful than phenylbutazone | at least equivalent to indomethacine | powerful anti-inflammatory and anti-pyretic agent | marked analgesic effect | – | – | – | – | –
COc1ccc2c(c1)c(CC(=O)O)c(C)n2C(=O)c1ccc(Cl)cc1 [INDOMETHACINE, indomethacine, reference compound] | – | – | – | – | – | – | – | – | – | – | 1.3 | 8 | 14 | 1.5 | 5.5
CCCCC1C(=O)N(c2ccccc2)N(c2ccccc2)C1=O [PHENYLBUTAZONE, phenylbutazone, reference compound] | 10 | 200 | – | 120 | 8.5 | 110 | – | – | – | – | – | – | – | – | –
CC(=O)Oc1ccccc1C(=O)O [ASPIRIN, aspirin, reference compound] | – | – | – | – | – | – | – | – | – | – | 30 | – | 180 | 50 | 130
